Results as given in ChEMBL document CHEMBL1144455, “A small molecule-kinase interaction map for clinical kinase inhibitors” (Nat Biotechnol, 2005).

Experiments:
[1] = target: Tyrosine-protein kinase Fer (Homo sapiens, UniProt P16591)
[2] = target: T1, Dual specificity protein kinase TTK (Homo sapiens, UniProt P33981)
T1 sequence (P33981 whole entry): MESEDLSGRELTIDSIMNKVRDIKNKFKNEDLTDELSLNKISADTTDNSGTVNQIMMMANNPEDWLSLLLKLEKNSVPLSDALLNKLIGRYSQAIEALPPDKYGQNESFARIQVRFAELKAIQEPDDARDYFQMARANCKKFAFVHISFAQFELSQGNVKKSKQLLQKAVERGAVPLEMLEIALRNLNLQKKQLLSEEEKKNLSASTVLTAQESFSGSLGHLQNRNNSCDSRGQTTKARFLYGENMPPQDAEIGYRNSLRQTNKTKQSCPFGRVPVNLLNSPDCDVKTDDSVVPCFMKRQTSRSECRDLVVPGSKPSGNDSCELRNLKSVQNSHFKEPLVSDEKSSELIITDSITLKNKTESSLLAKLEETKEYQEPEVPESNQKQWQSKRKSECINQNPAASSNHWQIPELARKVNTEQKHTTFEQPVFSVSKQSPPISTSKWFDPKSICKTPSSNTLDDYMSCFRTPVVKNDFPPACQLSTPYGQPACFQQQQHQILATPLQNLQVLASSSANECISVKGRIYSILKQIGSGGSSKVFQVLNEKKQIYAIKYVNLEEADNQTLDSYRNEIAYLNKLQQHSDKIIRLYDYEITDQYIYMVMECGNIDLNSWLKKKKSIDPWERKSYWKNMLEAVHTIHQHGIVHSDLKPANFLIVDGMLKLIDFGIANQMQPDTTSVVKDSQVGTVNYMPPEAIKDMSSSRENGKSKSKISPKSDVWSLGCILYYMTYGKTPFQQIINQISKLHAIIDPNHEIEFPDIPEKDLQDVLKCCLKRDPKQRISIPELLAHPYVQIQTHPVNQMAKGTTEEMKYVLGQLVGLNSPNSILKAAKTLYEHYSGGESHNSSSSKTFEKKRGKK

Chain of Tyrosine-protein kinase Fer (P16591 whole entry): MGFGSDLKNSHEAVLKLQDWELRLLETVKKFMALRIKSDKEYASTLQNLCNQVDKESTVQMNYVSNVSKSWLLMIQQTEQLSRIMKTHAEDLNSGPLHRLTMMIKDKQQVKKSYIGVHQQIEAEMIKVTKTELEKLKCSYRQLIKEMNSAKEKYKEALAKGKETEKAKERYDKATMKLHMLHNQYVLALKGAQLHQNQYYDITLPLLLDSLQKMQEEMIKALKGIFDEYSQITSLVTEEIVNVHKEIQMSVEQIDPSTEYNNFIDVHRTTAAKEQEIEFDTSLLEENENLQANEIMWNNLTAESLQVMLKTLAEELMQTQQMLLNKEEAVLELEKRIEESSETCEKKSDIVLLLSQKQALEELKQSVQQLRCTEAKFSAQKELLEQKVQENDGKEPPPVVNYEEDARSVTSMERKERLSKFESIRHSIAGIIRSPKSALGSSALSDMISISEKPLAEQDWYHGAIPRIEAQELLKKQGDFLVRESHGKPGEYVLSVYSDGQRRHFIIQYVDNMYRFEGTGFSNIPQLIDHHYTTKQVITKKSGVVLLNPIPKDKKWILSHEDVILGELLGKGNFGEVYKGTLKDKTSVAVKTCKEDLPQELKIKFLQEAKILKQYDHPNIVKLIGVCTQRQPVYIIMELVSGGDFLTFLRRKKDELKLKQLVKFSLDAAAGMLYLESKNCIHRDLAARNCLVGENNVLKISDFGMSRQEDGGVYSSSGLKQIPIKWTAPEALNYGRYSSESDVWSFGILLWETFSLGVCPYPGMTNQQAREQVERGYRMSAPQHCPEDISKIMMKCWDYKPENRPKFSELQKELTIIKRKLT

| SMILES | Kd [1] | Kd [2] |
| --- | --- | --- |
| CCOc1cc2ncc(C#N)c(Nc3ccc(F)c(Cl)c3)c2cc1NC(=O)/C=C/CN(C)C [PELITINIB] | 0.25 µM | – |
| Oc1c2ccccc2c2c3c(cccc13)N=N2 [SP-600125] | – | 0.098 µM |
